In ChEMBL document CHEMBL4813910, “Curse or Cure? A Perspective on the Developability of Aldehydes as Active Pharmaceutical Ingredients” (J Med Chem, 2020):

Legend:
[1] = Half life in human at 40 mg, po BID cotreated with paclitaxel by HPLC method; type: ADME, organism-based; details: in vivo
[2] = Protein binding in human plasma; type: ADME, cell-free
[3] = Half life in mouse plasma at 5 ug/ml incubated for 1 to 24 hrs by LC/MS/MS method; type: ADME, cell-free; details: time 1-24 hrs, dose 5 µg/ml
[4] = Cmax in human at 20 mg/kg, po measured up to 30 hrs by HPLC method; type: ADME, organism-based; parameters: route oral, dose 20 mg/kg, time <=30; details: in vivo
[5] = AUC (0 to infinity) in human at 20 mg, po measured up to 240 hrs by HPLC method; type: ADME, organism-based; parameters: route oral, dose 20 mg, time <=240; details: in vivo
[6] = Clearance in dog at 0.5 mg/kg, iv by HPLC method; type: ADME, organism-based, Canis lupus familiaris; details: in vivo
[7] = Cmax in human at 40 mg, po BID cotreated with paclitaxel by HPLC method; type: ADME, organism-based; parameters: route oral, dose 40 mg; details: in vivo
[8] = AUC (0 to 10 hrs) in human at 40 mg, po BID cotreated with paclitaxel by HPLC method; type: ADME, organism-based; parameters: time < 10 hr, route oral, dose 40 mg; details: in vivo
[9] = Half life in human at 20 mg/kg, po measured up to 240 hrs by HPLC method; type: ADME, organism-based; details: in vivo
[10] = Half life in human at 20 mg/kg, po measured up to 30 hrs by HPLC method; type: ADME, organism-based; details: in vivo
[11] = Half life in human plasma at 5 ug/ml incubated for 1 to 24 hrs by LC/MS/MS method; type: ADME, cell-free; details: time 1-24 hrs, dose 5 µg/ml
[12] = Tmax in human at 20 mg/kg, po measured up to 30 hrs by HPLC method; type: ADME, organism-based; details: in vivo
[13] = Half life in dog plasma at 5 ug/ml incubated for 1 to 24 hrs by LC/MS/MS method; type: ADME, cell-free, Canis lupus familiaris; details: time 1-24 hrs, dose 5 µg/ml
[14] = Clearance in human at 40 mg, po BID cotreated with paclitaxel by HPLC method; type: ADME, organism-based; details: in vivo
[15] = Cmax in human at 20 mg, po measured up to 240 hrs by HPLC method; type: ADME, organism-based; parameters: route oral, dose 20 mg, time <=240; details: in vivo
[16] = AUC (0 to infinity) in human at 20 mg/kg, po measured up to 30 hrs by HPLC method; type: ADME, organism-based; parameters: route oral, dose 20 mg/kg, time <=30; details: in vivo
[17] = Tmax in human at 20 mg, po measured up to 240 hrs by HPLC method; type: ADME, organism-based; details: in vivo
[18] = Cmax in human erythrocytes at 2.8 g, po by liquid chromatography-tandem mass spectrometry method; type: ADME, organism-based, Erythrocyte; parameters: route oral, dose 2.8 g
[19] = Tmax in human erythrocytes at 2.8 g, po by liquid chromatography-tandem mass spectrometry method; type: ADME, organism-based, Erythrocyte
[20] = Induction of hemoglobin modification in human at 900 mg/day
[21] = Ratio of drug level in human erythrocytes to plasma at 2.8 g, po; type: ADME
[22] = Central volume of distribution in human at 2.8 g, po; type: ADME; details: in vivo
[23] = Clearance in human at 2.8 g, po by liquid chromatography-tandem mass spectrometry method; type: ADME, organism-based; details: in vivo
[24] = Tmax in human plasma at 2.8 g, po by liquid chromatography-tandem mass spectrometry method; type: ADME, organism-based
[25] = AUC (0 to 24 hrs) in human plasma at 2.8 g, po by liquid chromatography-tandem mass spectrometry method; type: ADME, organism-based; parameters: time < 24 hr, route oral, dose 2.8 g
[26] = Cmax in human plasma at 2.8 g, po by liquid chromatography-tandem mass spectrometry method; type: ADME, organism-based; parameters: route oral, dose 2.8 g
[27] = Half life in human plasma at 37 mg/kg, po by HPLC method; type: ADME, organism-based
[28] = Cmax in human erythrocytes at 37 mg/kg, po; type: ADME, organism-based, Erythrocyte; parameters: route oral, dose 37 mg/kg
[29] = Tmax in human erythrocytes at 37 mg/kg, po by HPLC method; type: ADME, organism-based, Erythrocyte
[30] = Cmax in human plasma at 37 mg/kg, po by HPLC method; type: ADME, organism-based; parameters: route oral, dose 37 mg/kg
[31] = AUC (0 to 24 hrs) in human erythrocytes at 37 mg/kg, po by HPLC method; type: ADME, organism-based, Erythrocyte; parameters: time < 24 hr, route oral, dose 37 mg/kg
[32] = AUC (0 to 24 hrs) in human plasma at 37 mg/kg, po by HPLC method; type: ADME, organism-based; parameters: time < 24 hr, route oral, dose 37 mg/kg; details: in vivo
[33] = Half life in human erythrocytes at 37 mg/kg, po by HPLC method; type: ADME, organism-based, Erythrocyte
[34] = Tmax in human plasma at 37 mg/kg, po by HPLC method; type: ADME, organism-based
[35] = Ratio of drug level in human erythrocytes to plasma at 20 mg/kg, iv measured over 1 hr; type: ADME, organism-based
[36] = Protein binding in human plasma incubated for 240 mins by equilibrium dialysis; type: ADME, cell-free; details: read-out: PPB (converted)
[37] = Cmax in human at 0.25%, OU administered once daily for 7 days; type: ADME; parameters: dose 0.25 %, time 7 day; details: topical or ocular
[38] = Drug metabolism in human assessed as half life of acid metabolite at 0.25%, OU administered once daily for 7 days; type: ADME; details: topical_or_ocular, 168 h, time 7 day
[39] = Drug metabolism in human assessed as AUC (0 to infinity) of acid metabolite at 0.25%, OU administered once daily for 7 days; type: ADME; parameters: time 7 day, dose 0.25 %; details: topical_or_ocular, 168 h
[40] = Half life in human liver supernatant; type: ADME, subcellular, Supernatent
[41] = Drug metabolism in human assessed as Tmax of acid metabolite at 0.25%, OU administered once daily for 7 days; type: ADME; details: topical_or_ocular, 168 h, time 7 day
[42] = Drug metabolism in human assessed as Cmax of acid metabolite at 0.25%, OU administered once daily for 7 days; type: ADME; parameters: dose 0.25 %, time 7 day; details: topical_or_ocular, 168 h
[43] = Half life in human at 0.25%, OU administered once daily for 7 days; type: ADME; details: topical or ocular, time 7 day
[44] = Tmax in human at 0.25%, OU administered once daily for 7 days; type: ADME; details: topical or ocular, time 7 day
[45] = Renal clearance in human at 0.5 g, iv; type: ADME; details: in vivo
[46] = Cmax in human serum at 2 g, po; type: ADME, cell-free; parameters: route oral, dose 2 g
[47] = Half life in human at 2 g, po; type: ADME; details: in vivo
[48] = Cmax in human at 0.5 g, iv; type: ADME; parameters: route intravenous, dose 0.5 g; details: in vivo
[49] = Protein binding in human plasma at 2 g, po; type: ADME, cell-free
[50] = Tmax in human serum at 2 g, po; type: ADME
[51] = AUC (0 to infinity) in human serum at 2 g, po; type: ADME, cell-free; parameters: route oral, time infinity, dose 2 g
[52] = Oral bioavailability in human at 2 g; type: ADME, organism-based; details: in vivo
[53] = Drug excretion in human urine at 0.5 g, iv measured within 24 hrs; type: ADME, organism-based; details: in vivo
[54] = Cmax in human at 2 g, po; type: ADME; parameters: route oral, dose 2 g; details: in vivo
[55] = Total clearance in human at 0.5 g, iv; type: ADME; details: in vivo
[56] = Drug excretion in human urine at 2 g, po measured within 24 hrs; type: ADME, organism-based; details: in vivo
[57] = Tmax in human at 2 g, po; type: ADME; details: in vivo
[58] = Non-renal clearance in human at 0.5 g, iv; type: ADME; details: in vivo
[59] = Volume of distribution at steady state in human at 0.5 g, iv; type: ADME; details: in vivo
[60] = Half life in human at 0.5 g, iv; type: ADME; details: in vivo
[61] = Volume of distribution in human at 20 mg/kg, iv measured over 1 hr; type: ADME, organism-based; details: in vivo
[62] = AUC (0 to 24 hrs) in human at 20 mg/kg, iv measured over 1 hr; type: ADME, organism-based; parameters: route intravenous, time 1 hrs, dose 20 mg/kg; details: in vivo
[63] = Elimination half life in human at 20 mg/kg, iv measured over 1 hr; type: ADME, organism-based; details: in vivo, read-out: beta t1/2 (converted)
[64] = Clearance in mouse at 1 mg/kg, iv; type: ADME, organism-based; details: in vivo
[65] = Oral bioavailability in mouse at 3 mg/kg; type: ADME, organism-based; details: in vivo
[66] = Half life in mouse at 1 mg/kg, iv; type: ADME, organism-based; details: in vivo
[67] = Volume of distribution at steady state in mouse at 1 mg/kg, iv; type: ADME, organism-based; details: in vivo, read-out: Vdss
[68] = Tmax in mouse at 3 mg/kg, po; type: ADME, organism-based; details: in vivo
[69] = AUC (0 to 24 hrs) in mouse at 3 mg/kg, po; type: ADME, organism-based; parameters: time < 24 hr, route oral, dose 3 mg/kg; details: in vivo
[70] = AUC (0 to 24 hrs) in mouse at 1 mg/kg, iv; type: ADME, organism-based; parameters: time < 24 hr, route intravenous, dose 1 mg/kg; details: in vivo
[71] = Cmax in mouse at 3 mg/kg, po; type: ADME, organism-based; parameters: route oral, dose 3 mg/kg; details: in vivo

## Cc1cc2c(C(C)C)c(O)c(O)c(C=O)c2c(O)c1-c1c(C)cc2c(C(C)C)c(O)c(O)c(C=O)c2c1O [GOSSYPOL]
[1]
  half-life: 3.33 h
[2]
  PPB: 63%
[2]; read-out: PPB (converted)
  fraction unbound: 0.61
[3]
  half-life at 5 ug/ml: < 1 h
[4]
  Cmax: 0.799 µM
[5]
  AUC(0-inf): 29.2 µM·h
[6]
  clearance: 0.833 mL/min/kg
[6]; 0.5 mg/kg
  CL: 0.83 mL/min/kg
[7]
  Cmax: 1.27 µM
[8]
  AUC at 10 h: 6.81 µM·h
[9]
  half-life: 133 h
[10]
  half-life: 4.55 h
[11]
  half-life at 5 ug/ml: < 1 h
[12]
  Tmax: 4.6 h
[13]
  half-life at 5 ug/ml: < 1 h
[14]
  CL/F: 2.5 mL/min/kg
[15]
  Cmax: 1.75 µM
[16]
  AUC(0-inf): 6.08 µM·h
[17]
  Tmax: 4.6 h

## CC(C)n1nccc1-c1ncccc1COc1cccc(O)c1C=O [VOXELOTOR]
[18]
  Cmax: 1110 µM
[19]
  Tmax: 17.1 h
[20]
  Activity: 40%
[21]
  Kp: 67
[22]
  Vc: 5.2 L/kg
[23]
  CL/F: 0.09 mL/min/kg
[24]
  Tmax: 7.1 h
[25]
  AUC(0-t) at 24 h: 1280 µM·h
[26]
  Cmax: 18.7 µM

## O=Cc1c(O)cccc1OCc1ccc(C(=O)O)cc1 [TUCARESOL]
[27]
  half-life: 223 h
[28]
  Cmax: 2460 µM
[29]
  Tmax: 24 h
[30]
  Cmax: 271 µM
[31]
  AUC(0-t) at 24 h: 579 µM·h
[32]
  AUC: 62 µM·h
[33]
  half-life: 120 h
[34]
  Tmax: 7.5 h
[35]
  Kp at 1 h: < 11.2

## CN1CCC(=C2c3ccccc3CCn3c(C=O)cnc32)CC1 [ALCAFTADINE]
[36]
  fraction unbound at 4 h: 0.61
[37]
  Cmax: 0.00015 µM
[38]
  t1/2: 2 h
[39]
  AUC: 0.0087 µM·h
[40]
  half-life: < 0.25 h
[41]
  Tmax: 1.05 h
[42]
  Cmax: 0.006 µM
[43]
  half-life: 0.4 h
[44]
  Tmax: 0.25 h

## SPIRAMYCIN
[45]
  CL: 144.2 mL/min
[46]
  Cmax: 3.7 µM
[47]
  t1/2: 6.23 h
[48]
  Cmax: 2.7 µM
[49]
  PPB: 48%
[50]
  Tmax: 3.3 h
[51]
  AUC: 12 µM·h
[52]
  F: 10%
[53]
  Drug excretion: 13.9%
[54]
  Cmax: 2 µM
[55]
  CL: 1.14 L/min
[56]
  Drug excretion: 4.4%
[57]
  Tmax: 4 h
[58]
  CL: 887 mL/min
[59]
  Vdss: 5.5 L/kg
[60]
  t1/2: 5.54 h

## O=Cc1c(O)cccc1OCCCCC(=O)O [VELARESOL]
[61]
  Vd: 0.067 L/kg
[62]
  AUC: 5.18 µM·h
[63]
  half-life: 2.2 h
[35]
  Kp at 1 h: 14.3

## COCCNc1cc(NC(=O)N2CCCc3cc(CN4CCN(C)CC4=O)c(C=O)nc32)ncc1C#N [FGF401]
[64]
  clearance: 28 mL/min/kg
[65]
  F: 21%
[66]
  half-life: 1.4 h
[67]
  Vd: 2.3 L/kg
[68]
  Tmax: 2 h
[69]
  AUC: 0.25 µM·h
[70]
  AUC: 1.16 µM·h
[71]
  Cmax: 0.2 µM
